Test results as given in patent US12310974B1, “Method of treating post-traumatic stress disorder with carpipramine” (priority 2023, dated 2025).

How the values were obtained:
PTSD patients = test: Clinical case reports of patients with PTSD; type: in vivo, human
Source text: A person was referred to a psychiatrist by […] general practitioner as they suffered from anxiety, sleep problems and nightmares. […] They were on leave from their position as a teacher. The subject was diagnosed with PTSD and a cognitive behavioural therapy was initiated.
A patient was followed by a psychiatrist due to depression symptoms, including sadness, feeling of hopelessness, apathy and anxiety. […] Fluoxetine was stopped after 6 months. About one year later, the depression symptoms recurred, alongside with auditory hallucinations. The patient was then. […] Three months later, fluoxetine was reintroduced alongside with risperidone. The patient's mood improved, but they still suffered from anxiety and auditory hallucinations. After 6 weeks with the combination of risperidone and fluoxetine, risperidone was replaced by carpipramine (150 mg/day).
A veteran presented to a psychiatrist with major depressive disorder (sadness, irritability, poor concentration, suicidal thoughts). […] New symptoms emerged, including nightmares and anxiety. […] Three months later, the patient relapsed, and was experiencing anxiety symptoms, nightmares and mildly depressed mood. The relapse was treated with carpipramine (initiated at 200 mg/day), which led to remission after 4 weeks of treatment. The patient's condition was stable for about 3 years. The symptoms (anxiety, nightmares, moderately depressed mood) reappeared after that time, together with hallucinations and flashbacks of combat. The diagnostic of PTSD was then established. Carpipramine (200 mg/day) was prescribed again, following the previous experience. The patient entered remission after 3 weeks of treatment.

alpha-1 adrenoreceptors = conditions: cited from earlier work
[1] = tested on: rats subjected to psychosocial stress; test: Context memory test after predator exposure and housing instability; type: in vivo; conditions: daily i.p. 21 days: carpipramine 5, sertraline 5, amitriptyline 2, quetiapine 10 mg/kg, 5 min in chamber
Procedure: (§1) An experiment was conducted to assess the effects of carpipramine, sertraline, amitriptyline and quetiapine in rates subjected to psychosocial stress (predator exposure and housing instability) against PTSD-like behaviours, based on a protocol adapted from Zoladz et al (2012).
(§2) Adult male Sprague-Dawley rats were used in all experiments. Fifty (50) rats were pair-housed on a 12-h light/dark schedule in cages with free access to food and water.
(§3) Following a 1-week acclimation phase, they were given two 1-h cat exposures, separated by 10 days, in conjunction with daily social stress in the form of randomized housing. During each of the two cat exposures, rats were placed in a perforated wedge-shaped Plexiglas enclosure. The rats, still immobilized within the Plexiglas enclosure, were taken to the cat housing room where they were placed in a metal cage with an adult female cat for 1 hour. The Plexiglas enclosure prevented any physical contact between the cat and rats, but enabled the rats to be exposed to all non-tactile sensory stimuli associated with the cat. The two cat exposures were separated by 10 days, with the first exposure taking place during the light cycle, and the second exposure taking place during the dark cycle. Beginning on the day of the first cat exposure, rats were exposed to unstable housing conditions for the next 31 days. They were housed two rats per cage, with their cohort pair combination changed on a daily basis during the entire 31-day stress period.
(§4) The rats were randomly assigned to 5 groups of 10, treated with carpipramine, sertraline, amitriptyline, quetiapine and saline. The treatments were administered as daily intraperitoneal injections over 21 days, starting from the day following the second cat exposure. Daily doses were as following: • Carpipramine: 5 mg/kg • Sertraline: 5 mg/kg • Amitriptyline: 2 mg/kg • Quetiapine: 10 mg/kg
(§5) Since a major component of PTSD is the persistent memory of a traumatic experience, a method with which to measure a rat's memory for the cat exposure experiences was used. Thus, rats were given a predator-based form of fear conditioning. The rats were placed in a chamber for 3 minutes immediately prior to each of the two cat exposures. The chamber consisted of two aluminium sides, an aluminium ceiling and clear Plexiglas on the front and back walls and speaker on one wall. A 74 dB, 2500 Hz tone was presented during the last 30 seconds of each chamber exposure. Three weeks following the second cat exposure, the rats were tested for their conditioned fear memory by assessing their freezing response (degree of immobility) when they were returned to the chamber and exposed to the tone. […] For the cue memory test, the percentage of immobile time was measured during the last 3 minutes (i.e. during the tone).

[2] = tested on: rats subjected to psychosocial stress; test: Cue memory test after predator exposure and housing instability; type: in vivo; conditions: daily i.p. 21 days: carpipramine 5, sertraline 5, amitriptyline 2, quetiapine 10 mg/kg, last 3 minutes (tone)
Procedure: as §1, §2, §3, §4, §5

[3] = tested on: rats subjected to psychosocial stress; test: Elevated plus maze (EPM) after predator exposure and housing instability; type: in vivo; conditions: daily i.p. 21 days: carpipramine 5, sertraline 5, amitriptyline 2, quetiapine 10 mg/kg, 5 min on EPM
Procedure: as §1, §2, §3, §4
Twenty-four hours after fear conditioning memory testing, the rats were placed on an elevated plus maze (EPM) for 5 minutes. The EPM is a routine test of anxiety in rodents and consists of two open arms and two closed arms of same size (11 cm by 50 cm) that intersect each other to form the shape of a plus sign. At the beginning of each trial, the rats were placed in the intersection area of the EPM, facing one of the open arms. The primary dependent measures of interest were the amount of time rats spent in the open arms and their overall ambulations.

DA receptors = conditions: rat striatum in vitro; order of potency Y-516 > clocapramine > carpipramine; cited from earlier work
socially isolated mice [4] = test: Forced swim test after social isolation (depressive-like behaviour); type: in vivo; conditions: forced swim day 36 vs pre-test day 21, minutes 3 to 6; daily s.c. for 2 weeks: carpipramine 5 mg/kg, paroxetine 1 mg/kg, olanzapine 0.3 mg/kg
Procedure: The mice were socially isolated for a period of 3 weeks in individual cages, with a 12-hour light/dark cycle. They had access to food and water at libitum. On day 21, a pre-test was performed. Cylindrical tanks were filled with water (approximately 25° C.) to a depth that prevents mice from touching the bottom. Each mouse was placed in a water-filled cylinder for 6 minutes. If the mouse was swimming or struggling after 6 minutes, it was gently submerged, so that it would struggle under the surface for up to 20 seconds. After this time elapsed, the mouse was removed from the container and placed in a transient drying cage with a heat lamp above it and a heat pad under it. The mice were closely and continuously monitored while recovering in this cage. […] The test was performed on day 36. Mice were placed again in water-filled cylinders for 6 minutes, and then moved to a drying cage. The behaviour of mice was coded over the minutes 3 to 6 of each test, in 3 categories: immobile, struggling and swimming. The time associated with each type of behaviour was recorded. A reduction in immobility time is considered predictive of antidepressant properties.

socially isolated mice [5] = test: Contextual fear conditioning and extinction (freezing) in socially isolated mice; type: in vivo; conditions: for Change in duration of freezing, mean: carpipramine 10 mg/kg s.c., change from day 1
Source text: Socially isolated mice express a decrease in corticolimbic allopregnanolone levels that is associated with an enhancement of contextual fear responses and impaired fear extinction. Social isolation can be seen as a prolonged stress that is often associated with a precipitating traumatic event, which leads to maladaptive post-stress adaptations and emergence of PTSD in patients. Thus, social isolation is considered to offer a suitable model to study vulnerability to PTSD.
Ten (10) male Swiss-Webster mice were socially isolated for a period of 4 weeks, in individual cages, according to a protocol proposed by Pinna et al.
Day 0—Training Test. During the training, mice were placed into the training chamber and allowed to explore it for 2 min. After this time, they received a conditioned stimulus (acoustic tone, 30 seconds, 85 dB) co-terminated with an unconditioned stimulus (electric foot shock, 2 s, 0.5 mA). This was repeated three times every 2 min. After the last stimuli, mice were allowed to explore the context for an additional minute before removal from the training chamber (total of 8 min).
Day 1—Contextual Test. Twenty-four hours after training, the mice were placed in the contextual cage, and freezing behavior was measured for 5 min without tone or foot shock presentation. Freezing was defined by the absence of any movement except for those related to respiration while the animal was in a stereotypical crouching posture. Freezing time in a index of fear response.
Days 2-5—Extinction Test. For contextual extinction experiments, mice were placed in the contextual cage for periods of 5 min over 4 consecutive days starting 24 h after the contextual test, and freezing behavior was measured.
After the contextual test, 5 mice received a dose of 10 mg/kg of carpipramine subcutaneously. Injections were repeated on days 2 to 4.

serotonin uptake = conditions: studies on metabolic fate and serotonin levels in the brain; cited from earlier work
[6] = Example 6: veteran, sertraline first, switched to venlafaxine, olanzapine subsequently added
[7] = Example 5: patient, fluoxetine as initial treatment, risperidone with psychological therapy

## COc1ccc(C(CN(C)C)C2(O)CCCCC2)cc1 (stereo not drawn) [venlafaxine]
PTSD patients; [6]
  clinical outcome of earlier treatments: some improvement, but severe symptoms persisted

## CN(C)C(=O)N[C@H]1CC[C@H](CCN2CCN(c3cccc(Cl)c3Cl)CC2)CC1 [Cariprazine]
alpha-1 adrenoreceptors
  affinity for alpha-1 adrenoreceptors: low affinity

## CN(C)CCC=C1c2ccccc2CCc2ccccc21 [Amitriptyline]
[1]
  Context memory % immobility time, mean: 64.5%
[2]
  Cue memory (during tone) % immobility time, mean: 42.7%
[3]
  EPM-Open arm exploration % time in open arm, mean: 20.6%

## CN[C@H]1CC[C@@H](c2ccc(Cl)c(Cl)c2)c2ccccc21 [Sertraline]
[1]
  Context memory % immobility time, mean: 37.1%
[2]
  Cue memory (during tone) % immobility time, mean: 25.7%
[3]
  EPM-Open arm exploration % time in open arm, mean: 32.5%
PTSD patients; [6]
  clinical outcome of earlier treatments: no improvement

## NC(=O)C1(N2CCCCC2)CCN(CCCN2c3ccccc3CCc3ccc(Cl)cc32)CC1 [clocapramine]
DA receptors
  affinity for DA receptors: high affinity

## Cc1cc2c(s1)Nc1ccccc1N=C2N1CCN(C)CC1 [Olanzapine]
Socially isolated mice [4]
  Mean change in immobility time compared to pre-test: +19.5 seconds

## NC(=O)C1(N2CCCCC2)CCN(CCCN2c3ccccc3CCc3ccccc32)CC1 [Carpipramine]
Socially isolated mice [5]; day 1 contextual test, treated group before first injection (carpipramine 10 mg/kg s.c. given after the test)
  mean duration of freezing: 117 s
Socially isolated mice [5]; day 2
  Change in duration of freezing, mean: -76 s
Socially isolated mice [5]; day 3
  Change in duration of freezing, mean: -93 s
Socially isolated mice [5]; day 4
  Change in duration of freezing, mean: -98 s
Socially isolated mice [5]; day 5
  Change in duration of freezing, mean: -99 s
Socially isolated mice [5]; treated group after extinction tests, carpipramine 10 mg/kg s.c. day 1 and days 2 to 4, p<0.01 vs control
  duration of freezing decreased to: 18 s
Socially isolated mice [4]
  Mean change in immobility time compared to pre-test: -104.3 s
[1]
  Context memory % immobility time, mean: 22.3%
[2]
  Cue memory (during tone) % immobility time, mean: 14.6%
[3]
  EPM-Open arm exploration % time in open arm, mean: 42.1%
PTSD patients; Example 4: person, oral carpipramine 100 mg/daily with cognitive behavioural therapy
  clinical outcome of PTSD symptoms: All PTSD symptoms improved markedly
PTSD patients; Example 5: patient, carpipramine 150 mg/day replacing risperidone, alongside fluoxetine
  clinical outcome: entered in remission two weeks later
PTSD patients; Example 6: first relapse, carpipramine initiated at 200 mg/day
  time to remission: 4 weeks
PTSD patients; Example 6: recurrence about 3 years later, PTSD diagnosed, carpipramine 200 mg/day
  time to remission: 3 weeks
DA receptors
  affinity for DA receptors: high affinity
Serotonin uptake
  effect on serotonin uptake: did not modify serotonin uptake

## Fc1ccc([C@@H]2CCNC[C@H]2COc2ccc3c(c2)OCO3)cc1 [Paroxetine]
Socially isolated mice [4]
  Mean change in immobility time compared to pre-test: -82.2 s

## CNCCC(Oc1ccc(C(F)(F)F)cc1)c1ccccc1 (stereo not drawn) [fluoxetine]
PTSD patients; [7]
  clinical outcome of earlier treatments: improvement in most symptoms, but anxiety persisted

## OCCOCCN1CCN(C2=Nc3ccccc3Sc3ccccc32)CC1 [Quetiapine]
[1]
  Context memory % immobility time, mean: 53.4%
[2]
  Cue memory (during tone) % immobility time, mean: 39.3%
[3]
  EPM-Open arm exploration % time in open arm, mean: 28.7%

## Cc1nc2n(c(=O)c1CCN1CCC(c3noc4cc(F)ccc34)CC1)CCCC2 [risperidone]
PTSD patients; [7]
  clinical outcome of earlier treatments: modest improvement
